biological target: T1, human recombinant DPP-IV (Homo sapiens, UniProt P27487); assay: Gly-Pro-pNA hydrolysis, absorbance at […] nm; format: biochemical; conditions: Gly-Pro-pNA substrate (20 µL of 1.75 mM), 0.1 M Tris-HCl, 0.1 M NaCl, 1 mM EDTA, pH 8.0, 37 °C, 30 min
T1 construct: gene DPP4; commercial recombinant human enzyme from ProSpec (Rehovot, Israel)
T1 sequence (P27487 29-766 limits assumed): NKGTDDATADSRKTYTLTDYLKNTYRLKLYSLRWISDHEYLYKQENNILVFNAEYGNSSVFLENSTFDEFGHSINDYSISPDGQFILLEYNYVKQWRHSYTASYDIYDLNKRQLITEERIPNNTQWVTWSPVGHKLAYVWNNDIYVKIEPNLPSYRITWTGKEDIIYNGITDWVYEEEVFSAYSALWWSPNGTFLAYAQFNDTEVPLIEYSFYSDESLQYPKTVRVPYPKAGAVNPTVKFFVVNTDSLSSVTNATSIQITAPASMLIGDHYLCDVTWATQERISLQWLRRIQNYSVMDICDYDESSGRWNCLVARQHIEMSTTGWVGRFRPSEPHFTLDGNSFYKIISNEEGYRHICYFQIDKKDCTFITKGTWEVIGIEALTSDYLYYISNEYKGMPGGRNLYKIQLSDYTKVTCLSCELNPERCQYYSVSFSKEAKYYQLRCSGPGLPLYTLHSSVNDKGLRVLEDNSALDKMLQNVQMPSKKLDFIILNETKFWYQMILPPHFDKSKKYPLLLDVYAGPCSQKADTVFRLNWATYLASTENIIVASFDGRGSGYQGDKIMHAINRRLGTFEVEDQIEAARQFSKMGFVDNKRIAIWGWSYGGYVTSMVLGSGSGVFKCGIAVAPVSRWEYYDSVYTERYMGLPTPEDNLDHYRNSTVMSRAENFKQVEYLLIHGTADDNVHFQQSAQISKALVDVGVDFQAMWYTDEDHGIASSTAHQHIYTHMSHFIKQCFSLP

Compound | % inhibition at 1 mM
O=C(O)C1=CO[C@@H](O[C@@H]2O[C@H](CO)[C@@H](O)[C@H](O)[C@H]2O)[C@@H]2C(CO)=C[C@@H](O)[C@H]12 [compound 3, scandoside] | the six GJE compounds inhibited the activity of DPP-IV
O=C(O)C1=CO[C@@H](O[C@@H]2O[C@H](CO)[C@@H](O)[C@H](O)[C@H]2O)[C@@H]2C(CO)=CC[C@H]12 [compound 4, geniposidic acid] | the six GJE compounds inhibited the activity of DPP-IV
COC(=O)C1=CO[C@@H](O[C@@H]2O[C@H](CO)[C@@H](O)[C@H](O)[C@H]2O)[C@H]2[C@@H]1[C@H](O)C[C@]2(C)O [compound 5, shanzhiside methyl ester] | the six GJE compounds inhibited the activity of DPP-IV
C[C@]1(O)C[C@@H](O)[C@@H]2C(C(=O)O)=CO[C@@H](O[C@@H]3O[C@H](CO)[C@@H](O)[C@H](O)[C@H]3O)[C@@H]21 [compound 6, shanzhiside] | the six GJE compounds inhibited the activity of DPP-IV

Reference: article PMC10649927, “Integration of Deep Learning and Sequential Metabolism to Rapidly Screen Dipeptidyl Peptidase (DPP)-IV Inhibitors from Gardenia jasminoides Ellis” (Molecules, 2023)
